From ChEMBL document CHEMBL1152685, “Structural basis of the selectivity of the beta(2)-adrenergic receptor for fluorinated catecholamines” (Bioorg Med Chem, 2009)

Columns and labels:
[1] = target: Beta-2 adrenergic receptor (Homo sapiens, UniProt P07550); assay: Displacement of [3H]dihydroalprenolol from human adrenergic beta2 receptor expressed in COS7 cell membrane
[2] = target: Beta-2 adrenergic receptor (Homo sapiens, UniProt P07550, V117C); assay: Displacement of [3H]dihydroalprenolol from human adrenergic beta2 receptor V117C mutant expressed in COS7 cell membrane
[3] = target: Beta-2 adrenergic receptor (Homo sapiens, UniProt P07550, N293L); assay: Displacement of [3H]dihydroalprenolol from human adrenergic beta2 receptor N293L mutant expressed in COS7 cell membrane
[4] = target: Beta-2 adrenergic receptor (Homo sapiens, UniProt P07550, N293A); assay: Displacement of [3H]dihydroalprenolol from human adrenergic beta2 receptor N293A mutant expressed in COS7 cell membrane
[5] = target: Beta-2 adrenergic receptor (Homo sapiens, UniProt P07550, N293Q); assay: Displacement of [3H]dihydroalprenolol from human adrenergic beta2 receptor N293Q mutant expressed in COS7 cell membrane
[6] = target: Beta-2 adrenergic receptor (Homo sapiens, UniProt P07550, N293F); assay: Displacement of [3H]dihydroalprenolol from human adrenergic beta2 receptor N293F mutant expressed in COS7 cell membrane
[7] = target: Beta-2 adrenergic receptor (Homo sapiens, UniProt P07550, D192G/F193V); assay: Displacement of [3H]dihydroalprenolol from human adrenergic beta2 receptor D192G, F193V mutant expressed in COS7 cell membrane
Sequence of Beta-2 adrenergic receptor (Homo sapiens, UniProt P07550, D192G/F193V) (P07550 whole entry D192G/F193V): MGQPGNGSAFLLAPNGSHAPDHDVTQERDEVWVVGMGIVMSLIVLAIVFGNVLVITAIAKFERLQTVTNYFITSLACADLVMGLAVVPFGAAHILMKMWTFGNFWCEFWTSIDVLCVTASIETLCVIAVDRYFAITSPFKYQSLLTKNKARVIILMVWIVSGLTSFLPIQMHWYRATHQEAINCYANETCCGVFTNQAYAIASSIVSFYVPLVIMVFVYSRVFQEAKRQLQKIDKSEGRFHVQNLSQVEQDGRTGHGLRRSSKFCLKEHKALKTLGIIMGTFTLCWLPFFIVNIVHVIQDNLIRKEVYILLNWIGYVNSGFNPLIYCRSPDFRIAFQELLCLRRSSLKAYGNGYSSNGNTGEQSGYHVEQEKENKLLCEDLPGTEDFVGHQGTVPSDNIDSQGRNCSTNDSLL

Sequence of Beta-2 adrenergic receptor (Homo sapiens, UniProt P07550, N293F) (P07550 whole entry N293F): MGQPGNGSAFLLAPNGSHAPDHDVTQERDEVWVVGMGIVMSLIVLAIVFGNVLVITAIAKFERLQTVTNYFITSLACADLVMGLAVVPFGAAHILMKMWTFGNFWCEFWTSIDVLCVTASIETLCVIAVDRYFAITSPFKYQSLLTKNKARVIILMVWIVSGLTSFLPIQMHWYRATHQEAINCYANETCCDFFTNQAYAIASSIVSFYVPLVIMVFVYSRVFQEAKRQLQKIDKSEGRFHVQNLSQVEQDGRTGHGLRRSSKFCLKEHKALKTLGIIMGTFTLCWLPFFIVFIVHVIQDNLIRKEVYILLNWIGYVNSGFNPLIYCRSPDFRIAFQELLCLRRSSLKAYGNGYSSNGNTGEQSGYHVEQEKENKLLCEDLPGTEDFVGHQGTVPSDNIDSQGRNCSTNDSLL
Sequence of Beta-2 adrenergic receptor (Homo sapiens, UniProt P07550, N293A) (P07550 whole entry N293A): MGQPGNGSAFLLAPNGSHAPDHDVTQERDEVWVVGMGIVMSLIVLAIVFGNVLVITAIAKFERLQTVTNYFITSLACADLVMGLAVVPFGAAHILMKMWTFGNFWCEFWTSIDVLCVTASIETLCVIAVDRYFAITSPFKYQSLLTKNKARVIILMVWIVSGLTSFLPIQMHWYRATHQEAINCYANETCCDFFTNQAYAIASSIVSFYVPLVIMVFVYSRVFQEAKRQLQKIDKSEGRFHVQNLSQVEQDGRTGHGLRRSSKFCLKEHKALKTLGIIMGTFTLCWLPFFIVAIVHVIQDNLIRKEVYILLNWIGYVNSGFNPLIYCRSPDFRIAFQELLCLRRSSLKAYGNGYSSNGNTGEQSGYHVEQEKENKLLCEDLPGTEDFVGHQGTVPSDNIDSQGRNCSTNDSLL
Sequence of Beta-2 adrenergic receptor (Homo sapiens, UniProt P07550, N293Q) (P07550 whole entry N293Q): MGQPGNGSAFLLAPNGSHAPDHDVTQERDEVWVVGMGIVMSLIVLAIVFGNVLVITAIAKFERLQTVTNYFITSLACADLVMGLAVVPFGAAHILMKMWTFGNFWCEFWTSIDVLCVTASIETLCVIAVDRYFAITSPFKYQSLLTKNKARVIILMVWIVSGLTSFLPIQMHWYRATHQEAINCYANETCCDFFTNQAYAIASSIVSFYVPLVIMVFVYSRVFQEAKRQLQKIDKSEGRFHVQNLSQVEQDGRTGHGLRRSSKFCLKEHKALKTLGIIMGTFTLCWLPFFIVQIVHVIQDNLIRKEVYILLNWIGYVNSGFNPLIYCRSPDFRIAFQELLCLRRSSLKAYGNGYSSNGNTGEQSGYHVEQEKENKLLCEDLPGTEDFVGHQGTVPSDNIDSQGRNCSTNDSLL
Sequence of Beta-2 adrenergic receptor (Homo sapiens, UniProt P07550) (P07550 whole entry): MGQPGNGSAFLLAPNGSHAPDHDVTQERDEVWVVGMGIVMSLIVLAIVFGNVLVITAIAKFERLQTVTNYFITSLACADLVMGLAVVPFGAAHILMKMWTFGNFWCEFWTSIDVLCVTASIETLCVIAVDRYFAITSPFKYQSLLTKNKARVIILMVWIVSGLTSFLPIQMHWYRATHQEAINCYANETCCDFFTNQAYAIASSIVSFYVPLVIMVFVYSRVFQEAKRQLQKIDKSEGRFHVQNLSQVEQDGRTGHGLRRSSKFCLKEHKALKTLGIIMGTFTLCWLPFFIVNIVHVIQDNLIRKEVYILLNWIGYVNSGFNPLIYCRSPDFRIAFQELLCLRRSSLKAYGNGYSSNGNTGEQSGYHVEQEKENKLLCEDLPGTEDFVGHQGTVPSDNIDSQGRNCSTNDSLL
Sequence of Beta-2 adrenergic receptor (Homo sapiens, UniProt P07550, N293L) (P07550 whole entry N293L): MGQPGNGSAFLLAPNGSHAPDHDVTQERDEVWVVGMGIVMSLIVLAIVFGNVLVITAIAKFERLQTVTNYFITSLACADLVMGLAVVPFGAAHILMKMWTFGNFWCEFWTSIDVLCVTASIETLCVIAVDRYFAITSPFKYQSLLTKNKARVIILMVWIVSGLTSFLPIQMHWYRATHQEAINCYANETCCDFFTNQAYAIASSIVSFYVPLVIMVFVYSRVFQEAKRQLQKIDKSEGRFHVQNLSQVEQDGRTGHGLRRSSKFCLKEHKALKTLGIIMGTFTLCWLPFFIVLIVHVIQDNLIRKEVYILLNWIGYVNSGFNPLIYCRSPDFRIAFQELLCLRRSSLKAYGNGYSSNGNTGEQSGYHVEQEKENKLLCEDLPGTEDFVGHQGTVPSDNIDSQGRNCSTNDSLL
Sequence of Beta-2 adrenergic receptor (Homo sapiens, UniProt P07550, V117C) (P07550 whole entry V117C): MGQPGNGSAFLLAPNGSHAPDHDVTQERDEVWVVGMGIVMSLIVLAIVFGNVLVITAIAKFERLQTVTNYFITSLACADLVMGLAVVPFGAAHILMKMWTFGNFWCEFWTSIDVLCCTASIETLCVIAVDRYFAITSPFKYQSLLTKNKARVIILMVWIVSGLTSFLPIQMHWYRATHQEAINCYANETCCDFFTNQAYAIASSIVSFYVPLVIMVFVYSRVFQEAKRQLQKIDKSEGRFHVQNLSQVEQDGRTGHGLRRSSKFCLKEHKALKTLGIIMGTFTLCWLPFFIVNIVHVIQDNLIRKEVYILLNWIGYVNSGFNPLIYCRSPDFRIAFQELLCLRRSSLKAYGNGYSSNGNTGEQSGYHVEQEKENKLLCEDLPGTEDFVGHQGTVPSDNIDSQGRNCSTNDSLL

Compound | Ki [1] [µM] | Ki [2] [µM] | Ki [3] [µM] | Ki [4] [µM] | Ki [5] [µM] | Ki [6] [µM] | Ki [7] [µM]
NC[C@H](O)c1ccc(O)c(O)c1F | 1160 | > 2000 | 188 | 5450 | 3330 | 70.1 | > 2000
NC[C@H](O)c1cc(O)c(O)cc1F | 15.8 | 39.8 | 117 | 319 | 68.9 | 216 | 19.5
